Test results taken from US4296107A, “Mildiomycin analogs and a method of production” (Takeda Chemical Industries, Ltd., priority 1979, dated 1981).
In brackets after ≈: the same amount, converted by molar mass. Read-outs that look alike come from different tables or passages of the source.

Assays:
[1] = system: Penicillium chrysogenum IFO 4626; experiment: Antimicrobial spectrum, agar dilution method (in vitro); type: cell-based; settings: IFO4626, medium A, 28 °C, 40 hr, read-out: Minimal inhibitory concentration
[2] = system: Sclerotinia sclerotiorum IFO 9395; experiment: as above; type: cell-based; settings: IFO9395, medium A, 28 °C, 40 hr, read-out: Minimal inhibitory concentration
[3] = system: Guignardia laricina IFO 7886; experiment: as above; type: cell-based; settings: Neofusicoccum laricinum, IFO7886; medium A, 28 °C, 88 hr; read-out: Minimal inhibitory concentration
[4] = system: Saccharomyces cerevisiae IFO 0209; experiment: as above; type: cell-based; settings: IFO0209, medium A, 28 °C, 40 hr, read-out: Minimal inhibitory concentration
[5] = system: Rhodotorula rubra IFO 0870; experiment: as above; type: cell-based; settings: IFO0870, medium A, 28 °C, 40 hr, read-out: Minimal inhibitory concentration
[6] = system: Bacillus subtilis IFO 3513; experiment: as above; type: cell-based; settings: IFO3513, medium B, 37 °C, 20 hr, read-out: Minimal inhibitory concentration
From the text: (§1) B 0.5% of Ehrlich's meat extract, 0.5% of polypeptone, 0.5% of NaCl, 1.5%

[7] = system: Escherichia coli IFO 12734; experiment: as above; type: cell-based; settings: IFO12734, medium B, 37 °C, 20 hr, read-out: Minimal inhibitory concentration
From the text: as §1

[8] = system: Proteus vulgaris IFO 3045; experiment: as above; type: cell-based; settings: IFO3045, medium B, 37 °C, 20 hr, read-out: Minimal inhibitory concentration
From the text: as §1

[9] = system: Mycobacterium phlei IFO 3158; experiment: as above; type: cell-based; settings: Mycolicibacterium phlei, IFO3158; medium C, 37 °C, 40 hr; read-out: Minimal inhibitory concentration
From the text: (§2) C 3.0% of glycerin, 0.5% of Ehrlich's meat extract, 0.5% of NaCl, 1.5% of […]

[10] = system: Mycobacterium smegmatis ATCC 607; experiment: as above; type: cell-based; settings: Mycolicibacterium smegmatis, ATCC607; medium C, 37 °C, 40 hr; read-out: Minimal inhibitory concentration
From the text: as §2

[11] = system: fungi of late blight of tomato; type: in vivo; settings: tomato plants in pots, 4 days, nontreated group taken as 100%
powdery mildew of barley = experiment: Controlling effect against powdery mildew of barley (method of Iwasa et al.); type: in vivo; settings: in words
From the text: The controlling effect against powdery mildew of barley was investigated according to the method of Iwasa, et. al. (The Journal of Antibiotics, vol. 31, No. 6, pp. 512, 1978).

Totranychus urticae = experiment: Miticidal effect on kidney bean seedlings; type: in vivo; settings: 500 ppm, 28 °C, 20 ml per pot
Experimental: The test on the miticidal effect was carried out. The seedlings (5 days after germination) of kidney bean grown in pots (9 cm in diameter) were inoculated on their main leaves with about 50 female adults of Totranychus urticae, and the test chemical solution was sprayed in 20 ml quantities per pot by means of a spray gun. After spraying, the pots were placed in a phytotron (28° C.), and a number of surving mites on leaves was investigated at the 5th and 7th day to determine a decrease rate against a number of mites immediately before spraying [=(number of mites tested-number of surving mites)/(number of mites tested)×100].

Solubilities = type: physicochemical; settings: free base
in vivo = settings: mouse
[12] = system: Cochlioborus miyabeanus IFO 5277; experiment: Antimicrobial spectrum, agar dilution method (in vitro); settings: 40 h, read-out: Minimal inhibitory concentration
some bacteria = experiment: Antimicrobial spectrum, agar dilution method (in vitro), summary in words; type: cell-based

Compound	MIC [1]	MIC [2]	MIC [3]	MIC [4]	MIC [5]	MIC [6]	MIC [7]	MIC [8]	MIC [9]	MIC [10]	Percent area of lesions ([11]; 150 ppm)	Percent area of lesions ([11]; 200 ppm)	Percent area of lesions ([11]; 250 ppm)	Percent area of lesions ([11]; 300 ppm)	Percent area of lesions ([11]; 500 ppm)	controlling effect against powdery mildew of barley (powdery mildew of barley)	Decrease rate against number of mites immediately before spraying, 5th day (Totranychus urticae)	Decrease rate against number of mites immediately before spraying, 7th day (Totranychus urticae)	solubility in organic solvents (Solubilities)	solubility in water (Solubilities)	further results
N=C(N)NCC(O)CC(O)(C(=O)O)C1OC(n2ccc(N)nc2=O)C=CC1NC(=O)C(N)CO (stereo not shown) [Example 2]	250 µg/mL (≈ 516 µM)	250 µg/mL (≈ 516 µM)	250 µg/mL (≈ 516 µM)	100 µg/mL (≈ 206 µM)	< 10 µg/mL	250 µg/mL (≈ 516 µM)	250 µg/mL (≈ 516 µM)	> 500 µg/mL	50 µg/mL (≈ 103 µM)	100 µg/mL (≈ 206 µM)	55%	0%	0%	0%	0%	greatly effective	100	100	less soluble	Easily soluble	LD50 (in vivo; ip): > 200 mg/kg; LD50 (in vivo; iv): > 100 mg/kg; LD50 (in vivo; sc): > 200 mg/kg; MIC [12]: 100 µg/mL (≈ 206 µM)
N=C(N)NCC(O)CC(O)(C(=O)O)C1OC(n2cc(Br)c(N)nc2=O)C=CC1NC(=O)C(N)CO (stereo not shown) [Example 5]	250 µg/mL (≈ 444 µM)	500 µg/mL (≈ 888 µM)	250 µg/mL (≈ 444 µM)	100 µg/mL (≈ 178 µM)	< 10 µg/mL	250 µg/mL (≈ 444 µM)	100 µg/mL (≈ 178 µM)	250 µg/mL (≈ 444 µM)	25 µg/mL (≈ 44.4 µM)	25 µg/mL (≈ 44.4 µM)	100%	11%	0%	0%	0%	greatly effective	100	100	less soluble	Easily soluble	antimicrobial activity against some bacteria (some bacteria): remarkably strong antimicrobial activity; LD50 (in vivo; ip): > 200 mg/kg; LD50 (in vivo; iv): > 100 mg/kg; LD50 (in vivo; sc): > 200 mg/kg; MIC [12]: 100 µg/mL (≈ 178 µM)
Cc1cn(C2C=CC(NC(=O)C(N)CO)C(C(O)(CC(O)CNC(=N)N)C(=O)O)O2)c(=O)nc1N (stereo not shown) [Example 6]	250 µg/mL (≈ 502 µM)	250 µg/mL (≈ 502 µM)	250 µg/mL (≈ 502 µM)	100 µg/mL (≈ 201 µM)	< 10 µg/mL	250 µg/mL (≈ 502 µM)	250 µg/mL (≈ 502 µM)	> 500 µg/mL	50 µg/mL (≈ 100 µM)	100 µg/mL (≈ 201 µM)	100%	17%	0%	0%	0%	greatly effective	100	100	less soluble	Easily soluble	LD50 (in vivo; ip): > 200 mg/kg; LD50 (in vivo; iv): > 100 mg/kg; LD50 (in vivo; sc): > 200 mg/kg; MIC [12]: 100 µg/mL (≈ 201 µM)
N=C(N)NCC(O)CC(O)(C(=O)O)C1OC(n2cc(F)c(N)nc2=O)C=CC1NC(=O)C(N)CO (stereo not shown) [Example 7]	250 µg/mL (≈ 498 µM)	250 µg/mL (≈ 498 µM)	250 µg/mL (≈ 498 µM)	100 µg/mL (≈ 199 µM)	< 10 µg/mL	250 µg/mL (≈ 498 µM)	250 µg/mL (≈ 498 µM)	> 500 µg/mL	25 µg/mL (≈ 49.8 µM)	100 µg/mL (≈ 199 µM)	100%	16%	0%	0%	0%	greatly effective	100	100	less soluble	Easily soluble	LD50 (in vivo; ip): > 200 mg/kg; LD50 (in vivo; iv): > 100 mg/kg; LD50 (in vivo; sc): > 200 mg/kg; MIC [12]: 100 µg/mL (≈ 199 µM)
